Reference: BindingDB's records for doi:10.1021/acs.jmedchem.9b00359 (Shandong University, 2019)

Assay: Inhibition of HIV1 reverse transcriptase p66/p51 K103N/Y181C mutant infected in human MT2 cells assessed as reduction in viral infection incubated for 5 days

| Structure (SMILES) | EC50 |
| --- | --- |
| Cc1c(Oc2ccccc2OCCn2ccc(=O)[nH]c2=O)cc(N(C)C(=O)CF)c2ccc(C#N)cc12 | 15 µM |
| C=CC(=O)N(C)c1cc(Oc2ccccc2OCCn2ccc(=O)[nH]c2=O)c(C)c2cc(C#N)ccc12 | 0.5 µM |
| C=CC(=O)Nc1cc(Oc2ccccc2OCCn2ccc(=O)[nH]c2=O)c(C)c2cc(C#N)ccc12 | > 12 µM |
